Measurements as given in publication PMC9501899 (Journal of the American Chemical Society, 2022).
Read-outs that look alike come from different tables or passages of the source.

Experiments:
mito-QC MEFs = assay: Mitophagy in mito-QC MEFs; format: cell-based, mouse; details: 24 h treatment
Source text: Mitochondrial dysfunction is one of the pathophysiological hallmarks of PD[73] and can be rescued by mitophagy, a quality control mechanism whereby damaged or unnecessary mitochondria are delivered to lysosomes for degradation through membrane trafficking.[8] It has been shown that increasing mitophagy with inducer agents has the potential as a PD therapy.[74] Previous studies have shown that the LRRK2 kinase activity impairs basal mitophagy and that LRRK2 knockout or pharmacological inhibition of LRRK2 with kinase inhibitors was able to rescue the mitophagy level.[8]
Data are represented as mean ± SEM from three to five independent experiments.
Immortalized mito-QC MEFs[8],[93] were maintained in DMEM (Gibco, 11960–044) supplemented with 10% FBS, 2 mM L-glutamine (Gibco, 2503-081), 1% Na-pyruvate (Gibco, 11360-070), 1% nonessential amino acids (Gibco, 11140–035), and 1% antibiotics (penicillin/streptomycin, 100 U/mL penicillin and 100 μg/mL streptomycin; Gibco) at 37 °C under a humidified 5% CO2 atmosphere. […] Quantification of red-only dots was semiautomatized using the mito-QC counter plugin on FIJI, as previously described,[8],[94] using the following parameters: radius for smoothing images = 2, ratio threshold = 1.5, and red channel threshold = mean + 1 SD. […]

human LRRK2 = molecular target: T1, human LRRK2 (Homo sapiens, UniProt Q5S007); assay: LRRK2 degradation in peripheral blood mononuclear cells (PBMCs); format: cell-based
T1 construct: endogenous in cells; host or cells: human PBMCs from healthy donors
T1 sequence (Q5S007 whole entry): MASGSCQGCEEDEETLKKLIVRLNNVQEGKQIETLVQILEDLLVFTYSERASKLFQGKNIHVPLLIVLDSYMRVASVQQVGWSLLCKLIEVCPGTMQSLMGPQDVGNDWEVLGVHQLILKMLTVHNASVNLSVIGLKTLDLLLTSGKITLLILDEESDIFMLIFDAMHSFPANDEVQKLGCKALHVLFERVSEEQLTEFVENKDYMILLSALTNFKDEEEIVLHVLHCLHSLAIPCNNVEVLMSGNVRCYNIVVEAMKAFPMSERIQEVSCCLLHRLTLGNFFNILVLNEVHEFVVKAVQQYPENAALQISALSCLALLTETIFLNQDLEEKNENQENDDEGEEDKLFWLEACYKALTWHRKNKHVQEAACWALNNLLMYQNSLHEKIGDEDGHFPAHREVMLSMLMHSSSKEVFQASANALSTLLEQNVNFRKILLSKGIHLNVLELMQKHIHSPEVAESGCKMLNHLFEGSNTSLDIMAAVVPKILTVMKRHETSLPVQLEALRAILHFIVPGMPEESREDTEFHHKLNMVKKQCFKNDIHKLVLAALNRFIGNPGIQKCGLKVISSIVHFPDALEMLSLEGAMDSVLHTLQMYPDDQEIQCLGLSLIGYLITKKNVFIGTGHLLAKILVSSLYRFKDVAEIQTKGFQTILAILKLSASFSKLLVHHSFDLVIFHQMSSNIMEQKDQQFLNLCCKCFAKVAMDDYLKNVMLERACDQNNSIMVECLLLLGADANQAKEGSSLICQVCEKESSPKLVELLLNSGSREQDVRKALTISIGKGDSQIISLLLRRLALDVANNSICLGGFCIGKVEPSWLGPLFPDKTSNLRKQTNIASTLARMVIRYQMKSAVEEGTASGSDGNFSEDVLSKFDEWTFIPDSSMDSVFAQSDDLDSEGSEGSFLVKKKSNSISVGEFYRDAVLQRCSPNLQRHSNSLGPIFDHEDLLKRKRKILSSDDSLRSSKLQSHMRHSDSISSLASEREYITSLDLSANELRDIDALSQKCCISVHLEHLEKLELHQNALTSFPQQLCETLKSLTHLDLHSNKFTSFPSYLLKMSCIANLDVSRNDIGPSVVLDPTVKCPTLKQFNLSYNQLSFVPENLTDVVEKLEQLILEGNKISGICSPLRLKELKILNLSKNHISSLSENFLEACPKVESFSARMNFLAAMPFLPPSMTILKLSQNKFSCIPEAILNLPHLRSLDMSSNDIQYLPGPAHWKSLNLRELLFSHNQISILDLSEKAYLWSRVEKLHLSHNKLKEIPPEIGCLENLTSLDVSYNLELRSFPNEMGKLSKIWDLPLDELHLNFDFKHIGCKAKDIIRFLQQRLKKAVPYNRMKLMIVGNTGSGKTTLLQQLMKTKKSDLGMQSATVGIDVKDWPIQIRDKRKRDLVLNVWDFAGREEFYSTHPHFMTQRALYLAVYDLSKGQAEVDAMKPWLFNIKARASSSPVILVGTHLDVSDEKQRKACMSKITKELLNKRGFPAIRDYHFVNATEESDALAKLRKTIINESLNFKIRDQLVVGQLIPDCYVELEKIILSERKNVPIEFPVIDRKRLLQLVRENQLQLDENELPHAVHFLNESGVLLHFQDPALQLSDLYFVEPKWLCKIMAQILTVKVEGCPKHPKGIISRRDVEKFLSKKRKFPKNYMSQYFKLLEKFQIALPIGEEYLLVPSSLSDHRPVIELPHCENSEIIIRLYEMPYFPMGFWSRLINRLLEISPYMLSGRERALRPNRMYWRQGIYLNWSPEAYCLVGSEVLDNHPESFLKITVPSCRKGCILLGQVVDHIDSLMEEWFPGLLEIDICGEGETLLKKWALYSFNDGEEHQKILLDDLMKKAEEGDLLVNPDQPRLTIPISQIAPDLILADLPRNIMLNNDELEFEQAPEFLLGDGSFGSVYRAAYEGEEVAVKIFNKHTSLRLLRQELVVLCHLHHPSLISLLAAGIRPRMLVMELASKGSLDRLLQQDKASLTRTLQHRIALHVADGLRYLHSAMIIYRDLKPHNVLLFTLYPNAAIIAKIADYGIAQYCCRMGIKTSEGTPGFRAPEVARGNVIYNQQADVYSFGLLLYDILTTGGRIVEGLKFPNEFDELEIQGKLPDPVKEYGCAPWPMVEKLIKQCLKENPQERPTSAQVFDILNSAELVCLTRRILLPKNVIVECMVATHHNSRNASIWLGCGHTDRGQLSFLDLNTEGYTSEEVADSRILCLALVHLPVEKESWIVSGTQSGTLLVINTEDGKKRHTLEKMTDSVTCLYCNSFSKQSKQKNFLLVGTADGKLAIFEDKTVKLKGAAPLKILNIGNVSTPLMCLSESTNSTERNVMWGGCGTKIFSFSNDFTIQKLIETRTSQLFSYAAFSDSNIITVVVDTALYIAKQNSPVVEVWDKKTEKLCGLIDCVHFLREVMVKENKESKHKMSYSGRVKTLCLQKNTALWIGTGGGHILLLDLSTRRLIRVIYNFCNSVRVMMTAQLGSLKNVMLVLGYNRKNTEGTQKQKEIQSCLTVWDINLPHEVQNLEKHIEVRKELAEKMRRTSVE
Source text: The relative LRRK2 protein and pRab10 levels were obtained by quantifying the ratios of total LRRK2/GAPDH or Rab10-pThr73/total Rab10, respectively, and the ratios were normalized to the DMSO-treated samples. The relative LRRK2 and pRab10 protein levels were plotted against the compound concentration and fitted against “nonlinear regression, one site-fit log IC50” in GraphPad to obtain the DC50 and EC50 values. Data points are presented as mean ± standard error of the mean (SEM) from three biological independent replicates. […] The relative LRRK2 protein and pRab10 levels were obtained by quantifying the ratios of total LRRK2/ GAPDH or Rab10-pThr73/total Rab10, respectively, and the ratios were normalized to the DMSO-treated samples. The relative LRRK2 and pRab10 protein levels were plotted against the treatment time and were fitted against “nonlinear regression, one-phase decay” in GraphPad to obtain the half-life (T1/2) values. Data points are presented as mean ± SEM from three biological independent replicates. […] The relative LRRK2 levels were obtained by quantifying the ratios of total LRRK2/tubulin and normalized to the DMSO-treated samples. The relative LRRK2 levels were plotted against the compound concentration and fitted against “nonlinear regression, one site-fit log IC50” in GraphPad to obtain the DC50 values.
PBMC cells were separated from human blood from healthy volunteer donors following the existing protocol[82] and pelleted by centrifugation at 1000g for 2 min. The supernatant was discarded, and the PBMC pellet was resuspended in PBS containing 2% FBS for washing. The suspension was centrifuged at 1000g for 2 min again, and the PBMC pellet was resuspended in Roswell Park Memorial Institute (RPMI)-1640 (Gibco) media supplemented with 10% FBS. The cells were then seeded into six-well plates and treated with testing compounds at indicated concentrations and time periods. After treatment, the cells were collected into a 2 mL Eppendorf tube and centrifuged at 500g for 2 min to pellet the cells, the supernatant was discarded, and the pellet was resuspended in 1 mL PBS and centrifuged at 500g for 2 min again. The PBMC pellet was lysed with 60 μL of lysis buffer containing 50 mM tris–HCl, pH 7.5, 1% (v/v) Triton X-100, 1 mM ethylene glycol-bis(β-aminoethyl ether)-N,N,N′,N′-tetraacetic acid (EGTA), 1 mM sodium orthovanadate, 50 mM NaF, 0.1% (v/v) 2-mercaptoethanol, 10 mM 2-glycerophosphate, 5 mM sodium pyrophosphate, 0.1 μg/mL microcystin-LR (Enzo Life Sciences), 270 mM sucrose, and 0.5 mM diisopropyl fluorophosphate (DIFP) (Sigma-Aldrich, Cat# D0879) in addition to a complete EDTA-free protease inhibitor cocktail (Sigma-Aldrich Cat # 11836170001). DIFP is highly toxic and must be prepared in a fume hood to a stock solution of 0.5 M in isopropanol. The lysed cells were then centrifuged at 1500g for 15 min at 0 °C. The supernatants were collected for analysis by quantitative immunoblotting. For long-term storage, the supernatant was flash-frozen and stored at −80 °C. Protein concentrations of cell lysates were determined using the Pierce BCA Protein Assay Kit (Thermo Fisher).
Cell lysates containing a quarter of a volume of 4× NuPAGE LDS sample buffer (NP0007) supplemented with 5% β-mercaptoethanol were heated at 95 °C for 5 min. Samples (15–20 μg) were loaded onto precast 4–12% bis–tris midi 20W or 26W gels (Thermo Fisher Scientific, Cat# WG1402BOX or WG1403BOX) and resolved at 130 V for 2 h with a NuPAGE MOPS SDS running buffer (Thermo Fisher Scientific Cat# NP0001-02). Proteins were electrophoretically transferred onto a 0.45 μm nitrocellulose membrane (GE Healthcare, Amersham Protran Supported […] NC) at 90 V for 90 min on ice in a transfer buffer (48 mM tris base and 39 mM glycine supplemented with 20% methanol).

Structure (SMILES): CNc1nc(Nc2ccc(C(=O)N3CCN(C[C@H]4CC[C@H](CSC(C)(C)[C@H](NC(=O)C5(F)CC5)C(=O)N5C[C@H](O)CC5C(=O)NCc5ccc(-c6scnc6C)cc5)CC4)CC3)cc2OC)ncc1Cl (stereo partly drawn) [XL01126, (2S,4R)-1-((R)-3-((((1R,4R)-4-((4-(4-((5-Chloro-4-(methylamino)pyrimidin-2-yl)amino)-3-methoxybenzoyl)piperazin-1-yl)methyl)cyclohexyl)methyl)thio)-2-(1-fluorocyclopropane-1-carboxamido)-3-methylbutanoyl)-4-hydroxy-N-(4-(4-methylthiazol-5-yl)benzyl)pyrrolidine-2-carboxamide]
- mitophagy level (in words) (mito-QC MEFs): induced the mitophagy level dose-dependently
- DC50 (human LRRK2; 4 h, read-out: DC50,4h (LRRK2)): 72 nM
- DC50 (human LRRK2; 24 h, read-out: DC50,24h (LRRK2)): 17 nM

Structure (SMILES): CNc1nc(Nc2ccc(C(=O)N3CCN(C[C@H]4CC[C@H](CSC(C)(C)[C@H](NC(=O)C5(F)CC5)C(=O)N5C[C@@H](O)C[C@H]5C(=O)NCc5ccc(-c6scnc6C)cc5)CC4)CC3)cc2OC)ncc1Cl [cis-XL01126, (2S,4S)-1-((R)-3-((((1R,4R)-4-((4-(4-((5-Chloro-4-(methylamino)pyrimidin-2-yl)amino)-3-methoxybenzoyl)piperazin-1-yl)methyl)cyclohexyl)methyl)thio)-2-(1-fluorocyclopropane-1-carboxamido)-3-methylbutanoyl)-4-hydroxy-N-(4-(4-methylthiazol-5-yl)benzyl)pyrrolidine-2-carboxamide]
- mitophagy level (in words) (mito-QC MEFs): induced the mitophagy level dose-dependently
- DC50,4h (LRRK2) (human LRRK2; 4 h): NDO
- Dmax (LRRK2) (human LRRK2; 4 h): NDO
- DC50,24h (LRRK2) (human LRRK2; 24 h): NDO
- Dmax (LRRK2) (human LRRK2; 24 h): NDO
